Patent US9464084B2, “P2X7 modulators” (Janssen Pharmaceutica NV, priority 2013, dated 2016)
Where a name gives a salt, the structure may show the parent alone.

How the values were obtained:
P2X7 [1] = molecular target: T1, P2X7 (Homo sapiens (Human), UniProt Q99572); experiment: Radioligand binding, tritiated A-804598, human P2X7-1321N1 cell membranes; settings: 1 hour at 4° C.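 Further: ki obtained from the binding IC50 after correction for tracer concentration and tracer affinity.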
Method: On the day of the experiment, cell membrane preparations were made according to standard published methods. […] The assay was terminated by filtration (GF/B filters pre-soaked with 0.3% PEI) and washed with washing buffer (Tris-HCl 50 mM). The IC50 generated in the binding assay was corrected for tracer concentration and affinity of the tracer to derive at the affinity (Ki) of the test compounds.

P2X7 [2] = molecular target: T1, P2X7; experiment: P2X7 antagonism in human PBMCs (LPS + Bz-ATP induced IL-1β release, ELISA); assay type: cell-based; settings: LPS 30 ng/ml, Bz-ATP 0.5 mM; for PBMC 1 μM (% control): compound 1 μM; for PBMC 10 μM (% control): compound 10 μM;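 on all read-outs here: PBMCs from donor human blood, with a further 1.5 h incubation of the cells in the assay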
Method: Human blood was collected using a blood donor program. PBMCs were isolated from blood using a Ficoll density gradient technique. Briefly, blood was laid on Ficoll solution and centrifuged at RT for 20 minutes at 2000 rpm. The buffy layer (between red blood cells and plasma) was carefully collected by aspiration, washed with PBS and centrifuged again at 1500 rpm for 15 minutes. The resulting cell pellet was washed and plated on 96 well-plates for experiments. For the Mouse/Human Whole Blood experiments, 150 μl of either mouse or human blood was platted on 96 well-plates. Lipopolysaccharide (LPS) (30 ng/ml) was added to each well and incubated for 1 hour. Test compounds were then added and incubated for 30 minutes. The P2X7 agonist, 2′(3′)-O-(4-benzoylbenzoyl) adenosine 5′ triphosphate (Bz-ATP) was then added at a final concentration of 0.5 mM (PBMC) or 1 mM (blood). Cells were incubated for an additional 1.5 hours. At that point, supernatant was collected and stored for IL-1β assay using manufacturer's protocol for enzyme-linked immunosorbent assay (ELISA). Data was expressed as percent control, where control is defined as the difference in IL-1β release in LPS+Bz-ATP samples and LPS only samples. Data was plotted as response (% control) versus concentration to generate IC50 values.

rat P2X7 = rat P2X7 (Rattus norvegicus (Rat), UniProt Q64663); experiment: Ca2+ flux (FLIPR) in 1321N1 cells expressing recombinant rat P2X7 channel; assay type: cell-based; settings: 250 μM BzATP;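 further: Calcium-4 dye fluorescence change read 180 s after agonist addition, following 30 min cell preincubation with test compound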
Method: Cells were seeded at a density of 25000 cells/well (96-well clear bottom black walled plates) in 100 μl volume/well. On the day of the experiment, cell plates were washed with assay buffer, containing (in mM): 130 NaCl, 2 KCl, 1 CaCl2, 1 MgCl2, 10 HEPES, 5 glucose; pH 7.40 and 300 mOs. After the wash, cells were loaded with the Calcium-4 dye (Molecular Device) and incubated in the dark for 60 minutes. Test compounds were prepared at 250× the test concentration in neat DMSO. Intermediate 96-well compound plates were prepared by transferring 1.2 μL of the compound into 300 μL of assay buffer. A further 3× dilution occurred when transferring 50 μL/well of the compound plate to 100 μL/well in the cell plate. Cells were incubated with test compounds and dye for 30 minutes. […] The fluorescence change was measured 180 seconds after adding the agonist.

P2X7 [3] = molecular target: T1, P2X7; experiment: Ca2+ flux (FLIPR) in 1321N1 cells expressing recombinant human P2X7 channel; assay type: cell-based; settings: 250 μM BzATP;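 further: Calcium-4 dye-loaded cells exposed to compound for 30 min before agonist addition, fluorescence change read 180 s after agonist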

T1 sequence (Q99572 whole entry): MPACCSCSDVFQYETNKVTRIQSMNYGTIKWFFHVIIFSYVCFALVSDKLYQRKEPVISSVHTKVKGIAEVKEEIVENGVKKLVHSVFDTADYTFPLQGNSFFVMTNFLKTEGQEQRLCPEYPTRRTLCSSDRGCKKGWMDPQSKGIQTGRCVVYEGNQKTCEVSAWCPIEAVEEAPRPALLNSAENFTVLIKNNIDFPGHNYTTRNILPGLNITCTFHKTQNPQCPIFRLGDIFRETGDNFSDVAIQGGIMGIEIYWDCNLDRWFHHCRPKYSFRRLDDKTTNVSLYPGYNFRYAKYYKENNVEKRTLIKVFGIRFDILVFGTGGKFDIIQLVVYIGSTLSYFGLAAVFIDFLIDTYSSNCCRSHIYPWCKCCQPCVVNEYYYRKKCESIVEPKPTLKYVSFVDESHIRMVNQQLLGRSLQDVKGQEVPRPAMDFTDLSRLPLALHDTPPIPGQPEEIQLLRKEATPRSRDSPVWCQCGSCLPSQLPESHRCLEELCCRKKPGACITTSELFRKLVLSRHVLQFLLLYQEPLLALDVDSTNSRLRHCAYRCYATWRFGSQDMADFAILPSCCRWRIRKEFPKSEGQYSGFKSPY
Sequence of rat P2X7 (Q64663 whole entry): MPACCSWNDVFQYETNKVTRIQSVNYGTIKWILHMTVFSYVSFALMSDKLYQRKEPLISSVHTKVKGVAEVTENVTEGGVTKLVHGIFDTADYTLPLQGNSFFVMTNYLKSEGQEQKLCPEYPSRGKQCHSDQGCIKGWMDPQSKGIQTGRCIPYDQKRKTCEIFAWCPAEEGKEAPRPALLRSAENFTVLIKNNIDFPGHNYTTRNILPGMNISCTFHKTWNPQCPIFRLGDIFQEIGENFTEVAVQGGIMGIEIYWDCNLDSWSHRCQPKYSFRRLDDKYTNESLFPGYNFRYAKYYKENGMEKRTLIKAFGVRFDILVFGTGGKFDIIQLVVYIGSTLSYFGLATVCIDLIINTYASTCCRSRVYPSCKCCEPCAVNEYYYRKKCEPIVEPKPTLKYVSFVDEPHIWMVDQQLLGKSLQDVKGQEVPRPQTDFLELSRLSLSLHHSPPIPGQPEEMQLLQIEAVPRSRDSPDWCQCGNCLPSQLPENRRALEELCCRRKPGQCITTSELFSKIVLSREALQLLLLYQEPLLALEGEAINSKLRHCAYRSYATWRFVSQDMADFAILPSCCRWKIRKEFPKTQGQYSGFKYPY

Row | Ki (P2X7 [1]) | PBMC 1 μM (% control) (P2X7 [2]) | IC50 (rat P2X7) | IC50 (P2X7 [3]) | PBMC 10 μM (% control) (P2X7 [2]) | SMILES
1 | 0.0316 µM | 23.2 % control | 0.0865 µM | 0.0062 µM |  | CC1c2nnn(-c3ncccn3)c2C=CN1C(=O)c1cccc(C(F)(F)F)c1Cl (stereo not shown) [Example 79, 5-{[2-Chloro-3-(trifluoromethyl)phenyl]carbonyl}-4-methyl-1-pyrimidin-2-yl-4,5-dihydro-1H-[1,2,3]triazolo[4,5-c]pyridine]
2 | 0.0631 µM |  | 0.108 µM | 0.0735 µM | 5.9 % control | CC1c2nnn(-c3ccc(F)cc3)c2C=CN1C(=O)c1cccc(C(F)(F)F)c1Cl (stereo not shown) [Example 81, 5-{[2-Chloro-3-(trifluoromethyl)phenyl]carbonyl}-1-(4-fluorophenyl)-4-methyl-4,5-dihydro-1H-[1,2,3]triazolo[4,5-c]pyridine]
3 | 0.0575 µM |  | 0.154 µM | 0.0173 µM | 7.9 % control | CC1c2nnn(-c3ncccc3F)c2C=CN1C(=O)c1cccc(C(F)(F)F)c1Cl (stereo not shown) [Example 82, 5-{[2-Chloro-3-(trifluoromethyl)phenyl]carbonyl}-1-(3-fluoropyridin-2-yl)-4-methyl-4,5-dihydro-1H-[1,2,3]triazolo[4,5-c]pyridine]
4 | 0.159 µM |  | 0.397 µM | 0.0169 µM | 4.5 % control | CC1c2nnn(-c3ccc(F)cc3)c2CCN1C(=O)c1cccc(C(F)(F)F)c1Cl (stereo not shown) [Example 83, 5-{[2-Chloro-3-(trifluoromethyl)phenyl]carbonyl}-1-(4-fluorophenyl)-4-methyl-4,5,6,7-tetrahydro-1H-[1,2,3]triazolo[4,5-c]pyridine]
5 | 0.0398 µM |  | 0.136 µM | 0.0129 µM | 13.0 % control | CC1c2nnn(-c3cc[nH]n3)c2C=CN1C(=O)c1cccc(C(F)(F)F)c1Cl (stereo not shown) [Example 86, 5-{[2-Chloro-3-(trifluoromethyl)phenyl]carbonyl}-4-methyl-1-(1H-pyrazol-3-yl)-4,5-dihydro-1H-[1,2,3]triazolo[4,5-c]pyridine]
6 | 0.0158 µM | −1.5 % control | 0.908 µM | 0.0055 µM |  | O=C(c1cccc(C(F)(F)F)c1Cl)N1C=Cc2c(nnn2-c2cnccn2)C1 [Example 89, 5-{[2-Chloro-3-(trifluoromethyl)phenyl]carbonyl}-1-pyrazin-2-yl-4,5-dihydro-1H-[1,2,3]triazolo[4,5-c]pyridine]
7 | 0.0295 µM | 13.3 % control | 0.973 µM | 0.0103 µM |  | O=C(c1cccc(C(F)(F)F)c1Cl)N1C=Cc2c(nnn2-c2ccccn2)C1 [Example 90, 5-{[2-Chloro-3-(trifluoromethyl)phenyl]carbonyl}-1-pyridin-2-yl-4,5-dihydro-1H-[1,2,3]triazolo[4,5-c]pyridine]
8 | 0.0263 µM | 2.8 % control | 0.44 µM | 0.0054 µM |  | Cn1nc2c(c1-c1ccccn1)CCN(C(=O)c1cccc(C(F)(F)F)c1Cl)C2 [Example 92, 6-{[2-Chloro-3-(trifluoromethyl)phenyl]carbonyl}-2-methyl-3-pyridin-2-yl-4,5,6,7-tetrahydro-2H-pyrazolo[3,4-c]pyridine]
9 | 0.0398 µM | 9.0 % control | 0.251 µM | 0.0079 µM |  | O=C(c1cccc(C(F)(F)F)c1Cl)N1CCc2c(-c3ccccn3)n[nH]c2C1 [Example 93, 6-{[2-Chloro-3-(trifluoromethyl)phenyl]carbonyl}-3-pyridin-2-yl-4,5,6,7-tetrahydro-2H-pyrazolo[3,4-c]pyridine. TFA salt]
10 | 0.0316 µM |  | 0.123 µM | 0.0124 µM | 10.8 % control | O=C(c1cccc(C(F)(F)F)c1Cl)N1CCc2c(-c3ccc(F)cn3)n[nH]c2C1 [Example 94, 6-{[2-Chloro-3-(trifluoromethyl)phenyl]carbonyl}-3-(5-fluoropyridin-2-yl)-4,5,6,7-tetrahydro-2H-pyrazolo[3,4-c]pyridine]
11 | 0.316 µM |  | > 10 µM | 0.204 µM | 14.4 % control | O=C(c1cccc(C(F)(F)F)c1Cl)N1CCc2c(-c3cncc(F)c3)n[nH]c2C1 [Example 95, 6-{[2-Chloro-3-(trifluoromethyl)phenyl]carbonyl}-3-(5-fluoropyridin-3-yl)-4,5,6,7-tetrahydro-2H-pyrazolo[3,4-c]pyridine]
12 | 0.0148 µM |  | 0.179 µM | 0.0025 µM | 3.6 % control | O=C(c1cccc(C(F)(F)F)c1Cl)N1CCc2c(-c3cccnc3)n[nH]c2C1 [Example 96, 6-{[2-Chloro-3-(trifluoromethyl)phenyl]carbonyl}-3-pyridin-3-yl-4,5,6,7-tetrahydro-2H-pyrazolo[3,4-c]pyridine]
13 | 0.02 µM |  | 2.29 µM | 0.0045 µM | 12.7 % control | O=C(c1cccc(C(F)(F)F)c1Cl)N1CCc2c(-c3cnccn3)n[nH]c2C1 [Example 97, 6-{[2-Chloro-3-(trifluoromethyl)phenyl]carbonyl}-3-pyrazin-2-yl-4,5,6,7-tetrahydro-2H-pyrazolo[3,4-c]pyridine]
14 | 0.0141 µM |  | 0.548 µM | 0.0066 µM | 32.5 % control | O=C(c1cccc(C(F)(F)F)c1Cl)N1CCc2c(-c3ncccn3)n[nH]c2C1 [Example 98, 6-{[2-Chloro-3-(trifluoromethyl)phenyl]carbonyl}-3-pyrimidin-2-yl-4,5,6,7-tetrahydro-2H-pyrazolo[3,4-c]pyridine]
15 | 0.0501 µM | 8.9 % control | 1.61 µM | 0.205 µM |  | O=C(c1ccnc(Cl)c1Cl)N1CCc2c(-c3ccccc3)n[nH]c2C1 [Example 104, 6-[(2,3-Dichloropyridin-4-yl)carbonyl]-3-phenyl-4,5,6,7-tetrahydro-1H-pyrazolo[3,4-c]pyridine]
16 | 0.398 µM |  | > 10 µM | 0.855 µM | 42.6 % control | Cn1nc2c(c1-c1cncnc1)CCN(C(=O)c1cccc(C(F)(F)F)c1Cl)C2 [Example 113, 6-{[2-Chloro-3-(trifluoromethyl)phenyl]carbonyl}-2-methyl-3-pyrimidin-5-yl-4,5,6,7-tetrahydro-2H-pyrazolo[3,4-c]pyridine]
17 | 0.0112 µM |  | 0.0065 µM | 0.0032 µM | −0.2 % control | CC1Cc2c(nnn2-c2ccccn2)CN1C(=O)c1ccc(F)c(Cl)c1Cl (stereo not shown) [Example 121, 5-[(2,3-Dichloro-4-fluorophenyl)carbonyl]-6-methyl-1-pyridin-2-yl-4,5,6,7-tetrahydro-1H-[1,2,3]triazolo[4,5-c]pyridine]
18 | 0.0631 µM | 22.0 % control | 1 µM | 0.0501 µM |  | O=C(c1cccc(C(F)(F)F)c1F)N1CCc2c(nnn2-c2ccccn2)C1 [Example 123, (2-Fluoro-3-(trifluoromethyl)phenyl)(1-(pyridin-2-yl)-6,7-dihydro-1H-[1,2,3]triazolo[4,5-c]pyridin-5(4H)-yl)methanone]
19 | 0.0398 µM |  | 0.0891 µM | 0.0221 µM | 9.2 % control | Cn1ccc(-n2nnc3c2CCN(C(=O)c2cccc(C(F)(F)F)c2Cl)C3)n1 [Example 127, (2-Chloro-3-(trifluoromethyl)phenyl)(1-(1-methyl-1H-pyrazol-3-yl)-6,7-dihydro-1H-[1,2,3]triazolo[4,5-c]pyridin-5(4H)-yl)methanone]
20 | 0.0501 µM |  | 4.43 µM | 0.0783 µM | 3.8 % control | Cc1c(C(=O)N2CCc3c(nnn3-c3ccccn3)C2)ccc(F)c1F [Example 132, (3,4-Difluoro-2-methylphenyl)(1-(pyridin-2-yl)-6,7-dihydro-1H-[1,2,3]triazolo-[4,5-c]pyridin-5(4H)-yl)methanone]
21 | 0.0501 µM |  | 1.68 µM | 0.0033 µM | 4.2 % control | CC1c2nnn(-c3ncc(F)cn3)c2CCN1C(=O)c1cccc(Cl)c1Cl (stereo not shown) [Example 174, (2,3-Dichlorophenyl)(1-(5-fluoropyrimidin-2-yl)-4-methyl-6,7-dihydro-1H-[1,2,3]triazolo[4,5-c]pyridin-5(4H)-yl)methanone]
22 | 0.0135 µM |  | 0.0063 µM | 0.0039 µM | 0.5 % control | CC1Cc2c(nnn2-c2cc[nH]n2)CN1C(=O)c1cccc(C(F)(F)F)c1F (stereo not shown) [Example 189, (2-fluoro-3-(trifluoromethyl)phenyl)(6-methyl-1-(1H-pyrazol-3-yl)-6,7-dihydro-1H-[1,2,3]triazolo[4,5-c]pyridin-5(4H)-yl)methanone]
23 | 0.0091 µM |  | 0.0423 µM | 0.0062 µM | −1.0 % control | Cc1ccnc(-n2nnc3c2CCN(C(=O)c2cccc(Cl)c2Cl)C3C)n1 (stereo not shown) [Example 225, (2,3-dichlorophenyl)(4-methyl-1-(4-methylpyrimidin-2-yl)-6,7-dihydro-1H-[1,2,3]triazolo[4,5-c]pyridin-5(4H)-yl)methanone]
24 | 0.0251 µM |  | 0.0604 µM | 0.0815 µM | −3.4 % control | CC1Cc2c(nnn2-c2ccc(F)cc2)C(C)N1C(=O)c1cccc(Cl)c1Cl (stereo not shown) [Example 242, (2,3-Dichlorophenyl)(1-(4-fluorophenyl)-4,6-dimethyl-6,7-dihydro-1H-[1,2,3]triazolo[4,5-c]pyridin-5(4H)-yl)methanone]
25 | 0.1 µM |  | 2.07 µM | 0.161 µM | −7.3 % control | CC1CN(C(=O)c2cccc(C(F)(F)F)c2Cl)Cc2nnn(-c3ccccc3)c21 (stereo not shown) [Example 245, (2-Chloro-3-(trifluoromethyl)phenyl)(7-methyl-1-phenyl-6,7-dihydro-1H-[1,2,3]triazolo[4,5-c]pyridin-5(4H)-yl)methanone]
